What all share (type): cell-based
The test system of experiment [1] is Stenotrohomonas maltophilia SR21970. Description: MIC, agar plate incubation (CLSI), Mueller-Hinton agar. The note with it: Stenotrophomonas maltophilia, S. maltophilia SR21970, L-1, MBL producing (carbapenem resistant) strain, 10000 cfu/spot, read-out: Minimum Inhibitory Concentration (MIC). The method, then: (§1) (Test Methods for Compounds (I-1) to (I-9), (I-16), (I-17) and (I-23))
(Microbe/Strain Species No. 5):
Measurement of Minimum Inhibitory Concentration (MIC, microgram/ml) was conducted according to the CLSI (Clinical and Laboratory Standards Institute) and the amount of bacteria for inoculation was 10000 cfu/spot, and Mueller-Hinton agar medium was used as the test medium, and conducted using agar plate incubation.

Experiment [2] concerns Klebsiella pneumoniae ATCC 700603. Briefly: MIC, agar plate incubation (Japan Society for Chemotherapy standard method). The note with it: K. pneumoniae ATCC700603, SHV-18, ESBL producing strain, sensitive disc medium, 1000 cfu/spot, read-out: Minimum Inhibitory Concentration (MIC). The method, then:
as §1
(§2) (Microbe/Strain Species Nos. 1 to 4 and 6 to 8):
(§3) Measurement of Minimum Inhibitory Concentration (MIC: microgram/ml) was conducted according to the standard method of the Japan Society for Chemotherapy, and the amount of bacteria for inoculation was 1000 cfu/spot, and sensitive disc medium was used as the test medium, and conducted using agar plate incubation.

The subject of experiment [3] is Pseudomonas aeruginosa SR24. The description is as above. The note with it: P. aeruginosa SR24, ceftazidime sensitive strain, sensitive disc medium, 1000 cfu/spot, read-out: Minimum Inhibitory Concentration (MIC). As for the experimental part:
as §1, §2, §3

The test system of experiment [4] is Acinetobacter baumannii SR24396. Described as above. The note with it: A. baumannii SR24396, sensitive disc medium, 1000 cfu/spot, read-out: Minimum Inhibitory Concentration (MIC). As for the experimental part: as §1, §2, §3
Experiment [5] concerns Streptococcus pneumoniae SR16675. Described as above. The note with it: S. pneumoniae SR16675, PRSP, sensitive disc medium, 1000 cfu/spot, read-out: Minimum Inhibitory Concentration (MIC). The method, then: as §1, §2, §3
For experiment [6], the system named is Streptococcus pneumoniae Type I. The description is as above. The note with it: S. pneumoniae Type I, PSSP, sensitive disc medium, 1000 cfu/spot, read-out: Minimum Inhibitory Concentration (MIC). As for the experimental part: as §1, §2, §3
Experiment [7] concerns Pseudomonas aeruginosa SR27060. Described as above. The note with it: P. aeruginosa SR27060, IMP-1, MBL producing (carbapenem resistant) strain, sensitive disc medium, 1000 cfu/spot, read-out: Minimum Inhibitory Concentration (MIC). The method, then:
as §1, §2, §3

Experiment [8] has as its system Staphylococcus aureus Smith. The description is as above. Particulars: S. aureus Smith, MSSA, sensitive disc medium, 1000 cfu/spot, read-out: Minimum Inhibitory Concentration (MIC). The method, then:
as §1, §2, §3

Experiment [9] has as its system Klebsiella pneumoniae ATCC 700603. Briefly: MIC, broth microdilution (CLSI), medium with human Apo-transferrin. Particulars: K. pneumoniae ATCC700603, SHV-18, ESBL producing strain, cation adjusted Mueller-Hinton + human Apo-transferrin, 5×10^5 cfu/mL, read-out: Minimum Inhibitory Concentration (MIC). As for the experimental part:
(§4) (Test Methods for Compounds (I-10) to (I-15))
(§5) (Microbe/Strain Species Nos. 1 to 5):
(§6) Measurement of Minimum Inhibitory Concentration (MIC, microgram/ml) was conducted according to the CLSI (Clinical and Laboratory Standards Institute) and the amount of bacteria for inoculation was 5×10^5 cfu/mL, and cation adjusted Mueller-Hinton liquid medium added human Apo-tranferrin was used as the test medium, and conducted using broth microdilution method.
(§7) (Test Methods for Compounds (I-18) to (I-22))
(In broth dilution the organism is exposed to a series of concentrations in liquid medium.)

The subject of experiment [10] is Pseudomonas aeruginosa SR24. The experiment is described as above. The note with it: P. aeruginosa SR24, ceftazidime sensitive strain, cation adjusted Mueller-Hinton + human Apo-transferrin, 5×10^5 cfu/mL, read-out: Minimum Inhibitory Concentration (MIC). The method, then: as §4, §5, §6, §7
Experiment [11] concerns Acinetobacter baumannii SR24396. The experiment is described as above. Particulars: A. baumannii SR24396, cation adjusted Mueller-Hinton + human Apo-transferrin, 5×10^5 cfu/mL, read-out: Minimum Inhibitory Concentration (MIC). The method, then:
as §4, §5, §6, §7

Experiment [12] deals with Stenotrohomonas maltophilia SR21970. The experiment is described as above. Particulars: Stenotrophomonas maltophilia, S. maltophilia SR21970, L-1, MBL producing (carbapenem resistant) strain, cation adjusted Mueller-Hinton + human Apo-transferrin, 5×10^5 cfu/mL, read-out: Minimum Inhibitory Concentration (MIC). As for the experimental part: as §4, §5, §6, §7
For experiment [13], the system named is Pseudomonas aeruginosa SR27060. The description is as above. The note with it: P. aeruginosa SR27060, IMP-1, MBL producing (carbapenem resistant) strain, cation adjusted Mueller-Hinton + human Apo-transferrin, 5×10^5 cfu/mL, read-out: Minimum Inhibitory Concentration (MIC). As for the experimental part: as §4, §5, §6, §7

The structures appear in SMILES notation. In brackets after ≈: the same amount, converted by molar mass. A value given as a limit tells only on which side of the number the result lay.

Regarding `CCN1CCN(C(=O)N[C@@H](C(=O)N[C@@H]2C(=O)N3C(C(=O)[O-])=C(C[N+]4(CCNC(=O)c5ccc(O)c(O)c5Cl)CCCC4)CS[C@H]23)c2ccccc2)C(=O)C1=O` [Compound I-1], the MIC in experiment [1] is 2 µg/mL (≈ 2.51 µM); in experiment [2], 1 µg/mL (≈ 1.25 µM); in [3], 0.063 µg/mL (≈ 0.0789 µM); in experiment [4], 0.5 µg/mL (≈ 0.626 µM); in experiment [5] it was 8 µg/mL (≈ 10 µM); in experiment [6] it was 0.5 µg/mL (≈ 0.626 µM). Besides, the values for the MIC in experiment [7] and in experiment [8] were 0.5 µg/mL (≈ 0.626 µM) and 4 µg/mL (≈ 5.01 µM), respectively.
`Nc1nc(C(=CCC(=O)[O-])C(=O)N[C@@H]2C(=O)N3C(C(=O)[O-])=C(C[N+]4(CCNC(=O)c5ccc(O)c(O)c5Cl)CCCC4)CS[C@H]23)cs1.[Na+]` [Compound I-8]: the MIC in experiment [1] worked out at 4 µg/mL; in [2] it was 0.5 µg/mL; in [3], 0.25 µg/mL; in experiment [4] it was 0.25 µg/mL; in experiment [6] it was 4 µg/mL; in experiment [7], 2 µg/mL.
Regarding `CC(C)(O/N=C(\C(=O)N[C@@H]1C(=O)N2C(C(=O)[O-])=C(C[N@+]34CCC[C@H]3CN(C(=O)c3ccc(O)c(O)c3Cl)CC4)CS[C@H]12)c1ccc(O)cc1)C(=O)[O-].[Na+]` [Compound I-15], the MIC was determined as 32 µg/mL in experiment [9]; 0.5 µg/mL in experiment [10]; 4 µg/mL in [11]; 0.5 µg/mL in experiment [12]; 2 µg/mL in [13].
On to `CC(C)(O/N=C(\C(=O)NC1C(=O)N2C(C(=O)O)=C(C[N+]3(CCNC(=O)c4ccc(O)c(O)c4Cl)CCCC3)CS[C@H]12)c1ccc(O)c(F)c1)C(=O)[O-]` (some centres unmarked) [Compound I-17], for which the MIC in experiment [1] is 2 µg/mL (≈ 2.62 µM); in [2], 4 µg/mL (≈ 5.23 µM); in experiment [3], 0.25 µg/mL (≈ 0.327 µM); in experiment [4], 1 µg/mL (≈ 1.31 µM); in experiment [7] it was 1 µg/mL (≈ 1.31 µM).
For the molecule `CCN1CCN(C(=O)N[C@@H](C(=O)N[C@@H]2C(=O)N3C(C(=O)[O-])=C(C[N@+]4(C)[C@@H]5CC[C@H]4C[C@@H](NC(=O)c4ccc(O)c(O)c4Cl)C5)CS[C@H]23)c2ccccc2)C(=O)C1=O` [Compound I-18], the MIC in [9] was 2 µg/mL; in experiment [10], 0.125 µg/mL; in experiment [11], 0.25 µg/mL; in experiment [12], 4 µg/mL; in [13], 2 µg/mL.
For the molecule `CCN1CCN(C(=O)N[C@@H](C(=O)N[C@@H]2C(=O)N3C(C(=O)[O-])=C(C[N+]45CCC(CNC(=O)c6ccc(O)c(O)c6Cl)(CC4)CC5)CO[C@H]23)c2ccccc2)C(=O)C1=O` [Compound I-23], the MIC is > 64 µg/mL in experiment [1]; 16 µg/mL (≈ 19.8 µM) in [2]; 0.5 µg/mL (≈ 0.619 µM) in experiment [3]; 1 µg/mL (≈ 1.24 µM) in experiment [4]; 0.5 µg/mL (≈ 0.619 µM) in [6]; 4 µg/mL (≈ 4.95 µM) in [7].

These data come from patent US9085589B2, “Cephem derivative” (SHIONOGI & CO., LTD., priority 2010, dated 2015).
